{
  "source": "patent US11596166B2",
  "about": "(priority 2017, dated 2023)",
  "origin": "cited, not measured here",
  "tested_on": "pellagra patients",
  "conditions": "in vivo",
  "data": [
    {"smiles": "O=C(O)c1cccnc1", "note": "[nicotinic acid]", "values": [
      {"measurement": "acute mental symptoms", "value": "disappear rapidly, often over night"},
      {"measurement": "symptoms of pellagra", "value": "disappearance of many symptoms of the disease"},
      {"measurement": "time to blanching of acute erythematous dermal lesions with intact epithelium", "value": "≤ 48", "unit": "h"},
      {"measurement": "time to cessation of nausea and vomiting, normal bowel movements", "value": "24 to 72", "unit": "h"},
      {"measurement": "time to subsidence of redness and swelling of tongue, gums, mouth, throat, and vagina", "value": "24 to 72", "unit": "h"}
    ]}
  ]
}
